Where two headings read alike, the source gives them in different places.
Key:
[1] = at 35° C.; cited from earlier work
[2] = system: women with sexual dysfunction; assay: external application of misoprostol to the clitoris or/and to the vagina; format: in vivo; settings: for local vasodilation after external application: used externally to the clitoris or/and to the vagina
Excerpt: Because of the local vasodilation is caused tumescence of the clitoris, intence bleeding of the vagina and feeling of sexual desire. Simultaneously, in women with anorgasmia of various causes, promote after masturbation or sexual intercourse, the coming of orgasm.
Method of application: 0.1 (or more, depending on responce) are applied to the clitoris or/and to the vagina.
(§1) As had already been mentioned, misoprostol is an extremely hydrophile molecule compared with other prostaglandins of E1 series (e.g. with alprostadil which can be dissolved in alcohol but her solubility in water is only 8000 mcg/100 ml at 35° C.).

solubility in water = format: physicochemical
Method: as §1

patients = settings: cited from earlier work

undesirable effects in the presence of a-cyclodextrine ([2]; presence of a-cyclodextrine)	solubility in water (solubility in water)	SMILES	solubility in water [1]	time of appearance of the result ([2]; external application of the example forms)	systematic undesirable effects ([2]; high once only doses >1000 mcg to the clitoris or to the vagina)	misoprostol action in the presence of Polysorbate "80" ([2]; in the presence of Polysorbate "80")	change of misoprostol activity as a function of pH ([2]; pH of the pharmacotechnical form)	local vasodilation after external application [2]	carcinogenic or teratogenic effect (patients; in vivo)	effect on uterus (patients; in vivo)	undesirable effects in oral therapy (patients; oral therapy)
–	–	CCCCC[C@H](O)/C=C/[C@H]1[C@H](O)CC(=O)[C@@H]1CCCCCCC(=O)O [alprostadil]	8000 mcg/100 ml	–	–	–	–	–	–	–	–
reduces the undesirable effects	can be dissolved in water	CCCCC(C)(O)C/C=C/[C@H]1[C@H](O)CC(=O)[C@@H]1CCCCCCC(=O)OC (mixture of isomers) [Misoprostol, (11a,13E)-(±)-11,16-Dihydroxy-16-methyl-9-oxoprost-13-en-1-oic acid methyl ester]	–	20 to 40 min	shudder, feeling of hard ship, excitement and diarrhea	important reduction or/and neutralization	No significant changes	strong local vasodilation	hasn't been accused	irritation of the smooth uterine fibbers	male impotence
–	–	CCCCC(C)(O)C/C=C/[C@H]1[C@H](O)CC(=O)[C@@H]1CCCCCCC(=O)O (mixture of isomers) [misoprostol acid]	–	–	–	–	–	Equally strong topical vasodilation	–	–	–

Source: patent US6897239B1, “Use of misoprostol and/or metabolites of misoprostol for treating sexual dysfunction in women” (Lavipharm S.A., priority 1998, dated 2005)
